The values that follow are results of earlier work, collected in patent US20080014285A1, “METHOD OF TREATING NEURODEGENERATIVE BRAIN DISEASE WITH A COMPOSITE COMPRISING […] NANOPARTICLES AND A […] COMPOUND” (priority 2006, published 2008).

One series concerns traumatic brain injury. The conditions noted are these: administration no more than 12 hours post-trauma.
For series [1], the system named is glutamate-induced nitric oxide related neurotoxicity.
For another series, the system named is dopaminergic neurons. The settings on record: low dose; PD.
For series [2] the following is noted: systemic administration; patients with intracranial hypertension.
For series [3] the following is noted: peripheral administration, hypermagnesemia.

On to `[Mg+2]` [magnesium], for which, in the series with traumatic brain injury, the brain magnesium homeostasis entry is listed as “restores brain magnesium homeostasis”; the “motor and cognitive outcome” value is “profoundly improves both motor and cognitive outcome”. As to `CN(c1nc2ccccc2s1)C1CCN(C[C@H](O)COc2ccc(F)c(F)c2)CC1` [lubeluzole], the “glutamate-induced nitric oxide related neurotoxicity” value in series [1] is “inhibits”. For the compound VEGF, the “neuroprotection of dopaminergic neurons” value with dopaminergic neurons is reported as “neuroprotective”.

Take `O=S(=O)([O-])[O-].[Mg+2]` [magnesium sulfate]: in series [2], the “CSF ionized magnesium concentration” value is recorded as “failed to increase” and the “increase of plasma magnesium levels” value is recorded as greater than 50%. Further, in series [3], the “total and ionized CSF [Mg]” value is given as “only marginal increases”.
